Biological target: T1, human PAD4 (Homo sapiens, UniProt Q9UM07)
T1 construct: human PAD4 (NM_012387), A2P663, was PCR amplified; His-SUMO (N, cleaved yes); made in house; host or cells: E. coli BL21(DE3)
Test: In vitro PAD4 BAEE biochemical assay
Settings: human PAD4, BAEE substrate; 5 nM PAD4, 2 mM calcium chloride, 3 mM BAEE; geometric mean of multiple experiments
Method in brief: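 Ammonia generated from BAEE serves as the readout, measured by o-phthalaldehyde after EDTA termination. Final conditions: 5 nM human PAD4 (SUMO tag cleaved), 2 mM CaCl2, 3 mM BAEE, pH 7.6 MOPS buffer, 25 °C for 2 h following a 30-min compound preincubation.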

T1 sequence (Q9UM07 2-663): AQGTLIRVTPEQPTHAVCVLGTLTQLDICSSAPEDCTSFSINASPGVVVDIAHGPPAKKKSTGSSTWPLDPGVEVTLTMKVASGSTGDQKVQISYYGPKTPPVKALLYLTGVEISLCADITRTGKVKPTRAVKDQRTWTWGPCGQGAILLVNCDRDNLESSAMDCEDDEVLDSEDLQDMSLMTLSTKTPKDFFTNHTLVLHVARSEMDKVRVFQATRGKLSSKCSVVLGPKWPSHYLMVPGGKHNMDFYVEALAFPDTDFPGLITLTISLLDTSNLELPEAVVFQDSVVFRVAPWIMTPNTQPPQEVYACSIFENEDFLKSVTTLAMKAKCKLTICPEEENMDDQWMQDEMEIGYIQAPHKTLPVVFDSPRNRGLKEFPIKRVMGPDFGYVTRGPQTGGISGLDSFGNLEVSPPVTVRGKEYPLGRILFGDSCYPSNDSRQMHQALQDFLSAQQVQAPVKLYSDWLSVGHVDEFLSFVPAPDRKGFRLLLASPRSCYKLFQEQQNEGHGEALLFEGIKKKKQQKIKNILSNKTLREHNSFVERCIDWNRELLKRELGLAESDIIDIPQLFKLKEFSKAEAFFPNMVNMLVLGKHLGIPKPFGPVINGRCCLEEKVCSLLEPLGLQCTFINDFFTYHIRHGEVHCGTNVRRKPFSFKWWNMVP

SMILES	IC50
CS(=O)(=O)N(c1ccc2cc(-c3nc4cc(C(=O)N5CC[C@@H](N)C5)ccn4c3C3CC3)n(CC3CC3)c2n1)C(F)F [Example 393, ~{N}-[2-[7-[(3~{R})-3-aminopyrrolidine-1-carbonyl]-3-cyclopropylimidazo[1,2-a]pyridin-2-yl]-1-(cyclopropylmethyl)pyrrolo [2,3-b]pyridin-6-yl]-~{N}-(difluoromethyl) methanesulfonamide]	2010 nM
COc1cc(C(=O)N2[C@H]3CC[C@@H]2[C@H](N)C3)cc2nc(-c3cc4ccc([C@@H](C)NC(=O)C56CC(c7ccccc7)(C5)C6)nc4n3CC3CC3)c(C)n12 [Example 147, ~{N}-[(1~{R})-1-[2-[7-[(1~{R},2~{R},4~{S})-2-amino-7-azabicyclo[2.2.1]heptane-7-carbonyl]-5-methoxy-3-methylimidazo [1,2-a]pyridin-2-yl]-1-(cyclopropylmethyl)pyrrolo [2,3-b]pyridin-6-yl]ethyl]-3-phenylbicyclo[1.1.1]pentane-1-carboxamide]	403 nM
COc1cc(C(=O)N2[C@H]3CC[C@@H]2[C@H](N)C3)cc2nc(-c3cc4ccc(N5C[C@@H](C)OCS5(=O)=O)nc4n3CC3CC3)c(C)n12 [Example 440, [(1~{R},2~{R},4~{S})-2-amino-7-azabicyclo [2.2.1]heptan-7-yl]-[2-[1-(cyclopropylmethyl)-6-[(6~{R})-6-methyl-3,3-dioxo-1,3,4-oxathiazinan-4-yl]pyrrolo [2,3-b]pyridin-2-yl]-5-methoxy-3-methylimidazo [1,2-a]pyridin-7-yl] methanone]	207 nM
COc1cc(C(=O)N2[C@H]3CC[C@@H]2[C@H](N)C3)cc2nc(-c3cc4ccc([C@@H](C)NC(=O)C5CC6(CCC6)C5)nc4n3CC3CC3)c(C)n12 [Example 43, ~{N}-[(1~{R})-1-[2-[7-[(1~{R},2~{R},4~{S})-2-amino-7-azabicyclo[2.2.1]heptane-7-carbonyl]-5-methoxy-3-methylimidazo [1,2-a]pyridin-2-yl]-1-(cyclopropylmethyl)pyrrolo[2,3-b]pyridin-6-yl]ethyl]spiro[3.3]heptane-2-carboxamide]	49.6 nM
COc1cc(C(=O)N2[C@H]3CC[C@@H]2[C@H](N)C3)cc2nc(-c3cc4ccc([C@@H](C)NC(=O)C5(OC)CCC5)nc4n3CC3CC3)c(C)n12 [Example 41, ~{N}-[(1~{R})-1-[2-[7-[(1~{R},2~{R},4~{S})-2-amino-7-azabicyclo [2.2.1]heptane-7-carbonyl]-5-methoxy-3-methylimidazo [1,2-a]pyridin-2-yl]-1-(cyclopropylmethyl)pyrrolo[2,3-b]pyridin-6-yl]ethyl]-1-methoxycyclobutane-1-carboxamide]	27 nM

Next, values leading:

IC50	SMILES
228 nM	COc1cc(C(=O)N2[C@H]3CC[C@@H]2[C@H](N)C3)cc2nc(-c3cc4ccc(C5CCN(C(=O)N6CCCC6)CC5)nc4n3CC3CC3)c(C)n12 [Example 525, [(1~{R},2~{R},4~{S})-2-amino-7-azabicyclo [2.2.1]heptan-7-yl]-[2-[1-(cyclopropylmethyl)-6-[1-(pyrrolidine-1-carbonyl)piperidin-4-yl]pyrrolo [2,3-b]pyridin-2-yl]-5-methoxy-3-methylimidazo [1,2-a]pyridin-7-yl]methanone]
59.1 nM	COc1cc(C(=O)N2[C@H]3CC[C@@H]2[C@H](N)C3)cc2nc(-c3cc4ccc([C@@H](C)CC(=O)N5CCCC5)nc4n3CC3CC3)c(C)n12 [Example 523, (3~{S})-3-[2-[7-[(1~{R},2~{R},4~{S})-2-amino-7-azabicyclo[2.2.1]heptane-7-carbonyl]-5-methoxy-3-methylimidazo [1,2-a]pyridin-2-yl]-1-(cyclopropylmethyl)pyrrolo[2,3-b]pyridin-6-yl]-1-pyrrolidin-1-ylbutan-1-one]
131 nM	COc1cc(C(=O)N2CCC[C@@H](N)C2)cc2nc(-c3cc4ccc(OC5CCN(C)C5=O)nc4n3CC3CC3)c(C)n12 (some centres unmarked) [Example 623, 3-[2-[7-[(3~{R})-3-aminopiperidine-1-carbonyl]-5-methoxy-3-methylimidazo[1,2-a]pyridin-2-yl]-1-(cyclopropylmethyl)pyrrolo [2,3-b]pyridin-6-yl]oxy-1-methylpyrrolidin-2-one]

— patent publication US12240862B2, “Inhibitors of peptidylarginine deiminases” (Gilead Sciences, Inc., priority 2020, dated 2025)
